# Measured values reported in patent publication US12245576B2, “Method for genetic manipulation of sap-feeding insects” (The Regents of the University of California, priority 2018, dated 2025).
# “And” between values parts separate entries of the source, which are not always exact repeats. Equal entries are not always repeated. Where two headings read alike, the source gives them in different places.
# Columns and labels:
# leaf-discs [1] = test: DMSO spray and dips, tolerance by leaf-discs
# Description: There was no surface sterilization pretreatment; (2) discs were placed on GB+GBV agar plates; (3) disc were sprayed using a Preval Atomizer with 20% DMSO or water (control); (4) some plates were allowed to dry overnight in the hood. […] Plates were covered with two fabric screens. […] Plates were covered with one fabric screen.
# (§1) There was no surface sterilization pretreatment; (2) discs were dipped several times in 20% DMSO, 8% DMSO or water (control). Discs were allowed to dry for a short time in the hood. […] Plates were covered with two fabric screens. […] Plates were covered with one fabric screen.
# Brassica leaf-discs = test: Phytohormone treatment, calli and root production from Brassica leaf-discs
# Protocol: (§2) • 1. Leaf-discs (2.7-cm in diameter) were cut from Brassica leaves (Leaf #2, leaf #3) or eggplant leaves (see above). • 2. […] The discs were placed in Incubator B (higher humidity, higher light). Plates were covered with two fabric screens. • 4.
# eggplant leaf-discs = test: Phytohormone treatment, root production from eggplant leaf-discs
# Protocol: as §2
# leaf-discs [2] = test system: leaf-discs
# Protocol: Protocol 1: Ethanol and sodium hypochlorite: The method comprised the following steps: (1) whole leaves (Leaf 2 or leaf 3) were excised from plants; (2) leaves were dipped in 500 ml of 70% EtOH for 10-20 sec; (3) leaves were immersed in 500 ml of 0.01%, 0.06% or 0.24% NaClO for varying periods of time (1-20 min) with and without agitation of the liquid; (4) leaves were washed three to four times in distilled water (500-ml) each; (5) leaves were patted dry with paper towels; and (6) discs are cut from these pretreated leaves.
# Protocol 2: Ethanol and sodium hypochlorite: The method comprised the following steps: (1) leaf-discs (2.5-cm in diameter) were cut from leaf 2 (11.5-cm long) or leaf 3 from a 6-wk-old plants; (2) Discs were dipped in 500 ml of 70% EtOH for 10-20 sec; (3) Discs were immersed in 500 ml of 0.01%, 0.06% or 0.24% NaClO for varying periods of time (1-20 min) with and without agitation of the liquid; (4) Discs were washed three to four times in distilled water (500-ml) each; (5) Discs were patted dry with paper towels; (6) Discs were placed on GB+GBV agar plates, covered with a mesh lid, sealed with parafilm, and incubated agar side up; (7) In some experiments, GB-GBV plates were initially incubated agar side down to encourage root growth into the media. […]
# plant-derived fungi [3] = test: Surface sterilization of leaves/leaf-discs with EtOH and sodium hypochlorite, control of fungi
# Description: Plates were covered with two fabric screens. […] Plates were covered with one fabric screen.
# plant-derived fungi [4] = test: DMSO/miconazole dips, control of fungi on leaf-discs; conditions: dipping of leaf-discs in 8% DMSO and 5 μg/ml miconazole
# Protocol: as §1, with “screen. In most experiments both incubators were used; […].” for “screen.”
molecule,measurement,setting,value
"C[S+](C)[O-] [DMSO, dimethyl sulfoxide]",damage to leaf-discs,leaf-discs [1]; dipping into 8% DMSO,does not cause leaf-disc damage
same,damage to leaf-discs,leaf-discs [1]; dipping into 20% DMSO,does not cause leaf-disc damage
same,damage to leaf-discs,"leaf-discs [1]; direct spraying with 20% DMSO, two types of atomizers",causes extensive damage
"O=C(O)Cc1cccc2ccccc12 [NAA, Napthalene Acetic Acid]",Roots first detected,Brassica leaf-discs; 0.1 mg/L NAA,5 days
same,% plates with calli,Brassica leaf-discs; 1 mg/L NAA,67%
same,roots per site,"Brassica leaf-discs; 1 mg/L NAA, day 4",1-3 roots per site and 1 roots per site and 1-2 roots per site
same,roots per site,"Brassica leaf-discs; 1 mg/L NAA, day 5",1-3 roots per site and 1-2 roots per site
same,% plates with calli,Brassica leaf-discs; 10 mg/L NAA,100%
same,Calli first day detected,"Brassica leaf-discs; 10 mg/L NAA in GB + GBV, Incubator B",3 days
same,number of root sites per disc,"Brassica leaf-discs; 10 mg/L NAA, day 4, discs 142B-1 to -3",1 sites
same,roots per site,"Brassica leaf-discs; 10 mg/L NAA, day 5",2 per site and 1-3multiple per site and 1-3 per site
same,plates with roots,"Brassica leaf-discs; NAA 0.1 mg/L, day 5",⅔
same,plates with roots,"Brassica leaf-discs; NAA 1 mg/L, by day 4",all three
same,plates with roots,"Brassica leaf-discs; NAA 10 mg/L, by day 4",all three
same,root sites and roots per site detected,"Brassica leaf-discs; NAA 0.1, 1.0 and 10 mg/L",Multiple root sites and multiple roots per site
same,effect on production of roots from Brassica leaf-discs,"Brassica leaf-discs; NAA 0.1, 1.0 and 10 mg/L in GB+GBV",enhanced and accelerated the production of roots
same,production of roots from eggplant leaf-discs,"eggplant leaf-discs; NAA 0.1, 1.0 and 10 mg/L, within 5 d",did not produce of roots
"[Na+].[O-]Cl [NaClO, sodium hypochlorite]",damage to intact leaves or leaf-discs,leaf-discs [2],No damage was evident
same,time for which appearance of fungi is prevented,"plant-derived fungi [3]; prewashing intact leaves with 70% EtOH and 0.24% NaClO, then cutting discs",19 days
same,slowing of first appearance of fungi on agar plates,plant-derived fungi [3]; prewashing leaves or leaf-discs with 70% EtOH and 0.01% NaClO,1 to 2 days
same,slowing of first appearance of fungi on agar plates,plant-derived fungi [3]; prewashing with 70% EtOH and 0.06% NaClO,1 to 2 days
Clc1ccc(COC(Cn2ccnc2)c2ccc(Cl)cc2Cl)c(Cl)c1 (stereo not drawn) [miconazole],slowing of growth of plant-derived fungi,plant-derived fungi [4],10 to 12 days
Indole butyric acid [IBA],Calli first day detected,Brassica leaf-discs,4 days and 5 days
same,Roots first detected,Brassica leaf-discs,5 days
same,time in which leaf-discs produced roots,Brassica leaf-discs,5 to 6 days
same,detection of roots,Brassica leaf-discs; 1.0 mg/L IBA,occasionally detected
same,number of root sites per disc,"Brassica leaf-discs; 2.5 mg/L IBA, day 5",1 site
same,roots per site,"Brassica leaf-discs; 2.5 mg/L IBA, day 5",1 root
same,% plates with calli,Brassica leaf-discs; 5 mg/L IBA,67% and 100%
same,Roots first detected,Brassica leaf-discs; 5 mg/L IBA,5 days
same,number of root sites per disc,"Brassica leaf-discs; 5 mg/L IBA, day 5",2 sites
same,roots per site,"Brassica leaf-discs; 5 mg/L IBA, day 5",3-4 roots per site
same,% plates with calli,Brassica leaf-discs; 7.5 mg/L IBA,100%
same,Roots first detected,Brassica leaf-discs; 7.5 mg/L IBA,6 days
same,% plates with calli,Brassica leaf-discs; 10 mg/L IBA,100%
same,Roots first detected,Brassica leaf-discs; 10 mg/L IBA,5 days
same,roots per site,"Brassica leaf-discs; 10 mg/L IBA, day 5",1-4 roots per site and 1 root per site roots per site
same,number of root sites per disc,"Brassica leaf-discs; 10 mg/L IBA, day 6",132B-2 10 sites and 132B-3 15 sites
same,roots total per disc,"Brassica leaf-discs; 10 mg/L IBA, day 6, disc 132B-1",> 6d 132B-1 over 41 roots total
same,% plates with calli,Brassica leaf-discs; […],100%
same,discs that formed roots,eggplant leaf-discs,one
same,time after which roots formed,eggplant leaf-discs,10 days
